This test has as its target T1, cytochrome b (Plasmodium falciparum, UniProt Q02768).
T1 construct: gene MT-CYB; native complex III in mitochondrial membrane fraction of P. falciparum 3D7 lysate; with complex III (cytochrome c1, Rieske iron-sulfur protein)
T1 sequence (Q02768 1-376): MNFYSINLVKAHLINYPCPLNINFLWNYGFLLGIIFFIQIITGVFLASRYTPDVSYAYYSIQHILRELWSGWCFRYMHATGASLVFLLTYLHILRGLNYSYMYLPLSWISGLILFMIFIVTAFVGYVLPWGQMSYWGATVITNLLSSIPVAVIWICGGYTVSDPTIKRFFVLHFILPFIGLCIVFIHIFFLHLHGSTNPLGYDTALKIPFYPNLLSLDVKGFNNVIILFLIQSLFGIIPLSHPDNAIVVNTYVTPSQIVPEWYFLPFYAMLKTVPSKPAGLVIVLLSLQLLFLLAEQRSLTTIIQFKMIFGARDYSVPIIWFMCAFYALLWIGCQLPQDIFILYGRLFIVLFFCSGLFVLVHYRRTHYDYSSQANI
Briefly: complex III activity assay (decylubiquinol-driven cytochrome c reduction, […] nm) in P. falciparum membrane-enriched lysate; supported by resistance mutations in cytochrome b. The test is classed as cell-based.

Data on one compound can be found in publication PMC12172035, “The Thienopyrimidinone Gamhépathiopine Targets the QO Site of Plasmodium falciparum Cytochrome b” (ACS Infectious Diseases, 2025).

Bounds are passed on as bounds.

On to `Cc1ccc(-c2cc3nc(NC(C)(C)C)[nH]c(=O)c3s2)cc1` [gamhépathiopine], for which the inhibition (as a rule, the drop in the measured response relative to a control, in per cent) at 20 µM was greater than 93%.
